Results published in US20220325242A1, “IDH2 INHIBITION FOR PRODUCING T-CELLS AND B-CELLS WITH A MEMORY PHENOTYPE” (Universite de Lausanne, priority 2019, published 2022).

Key:
human CD8+ T-cells = assay: Cytokine expression after PMA and Ionomycin restimulation of human CBMC-derived T-cells; assay type: cell-based; details: day 11 cells, inhibitors washed out, PMA and ionomycin 4 hours
Method: Methods: Mononuclear Cells were isolated from fresh umbilical cord blood on a Percoll Gradient (CBMCs). 10^4 CBMC's were seeded per well in a round bottom 96-well plate in RPMI with 10% human serum, and activated with (magnetic) αCD3/CD28 at a 1:2 cell:bead ratio and 300 U/ml rhIL-2, in the presence of 5 μM AG221 or DMSO, or 1 μM MK2206 (AKT inhibitor). After 11 days of culture, CD62L expression was analyzed by flow cytometry on a fraction of the cells (FIG. 15A). The other cells were washed 2 times and placed in a magnet to remove the inhibitors and the αCD3/CD28 beads. The cells were then rested for 4 hours before restimulating them for 4 hours with 1 ng/ml Phorbol 12-Myristate 13-Acetate (PMA, a PKC activator) and 50 μg/ml Ionomycin (a Ca^2+ ionophore, activating NF-KB and NFAT) in the presence of 50 μ/ml golgi inhibitor (Brefeldin A, BFA), allowing for the measurement of intracellular accumulation of different cytokines by flow cytometry.

OT2 CD4 T cells = assay: CD62L flow cytometry of OT2 CD4 T cells activated by co-culture with dendritic cells; assay type: cell-based, mouse; details: 5 μM for 7 days, day 7, versus DMSO
From the text: A new experiment has been performed on mouse T cells in order to further strengthen our claim that IDH2 inhibition also promotes memory marker expression in CD4 T cells. As indicated in the experimental scheme (FIG. 17A), we activated CD4 T cells from OT2 mice by co-culture with dendritic cells. OT2 mice are transgenic for an αβTCR recognizing specifically a chicken ovalbumine peptide 323-339 associated with the mouse MHC class II molecule I-A^b. We activated OT2 CD4 T cells by co-culture with dendritic cells loaded with […] of the ovalbumine peptide in the presence of 100 IU/ml recombinant human IL2 in the presence of 5 μM AG221 or DMSO control. After 4 days, cells were collected, washed and split, and brought back in culture with 100 IU/ml rhIL2 and 5 μM AG221 or DMSO control.

OT1 CD8+ T cells = assay: Extracellular flux analyses (XF-96 Seahorse) of OT1 CD8+ T cells; assay type: cell-based, mouse; details: day 7, compared to DMSO
Method: Example 2. In vitro culture of splenocytes comprising CD8+ T-cells. OT1 splenocytes (as described in Example 1) were cultured for 3 days at a concentration of 10^6 cells per mL in RPMI medium (Gibco 61870-01) supplemented with 10% FCS, (Gibco 10270-106), 1% Penicillin/Streptomycin (P/S; Gibco 15070-063), 0.1% 13-mercaptoethanol, 1% HEPES (Gibco 15630-080), 1× Non-essential amino acids (Gibco 11140-035), 1% L-glutamine (Gibco 25030-081), 1 mM Sodium Pyruvate (Gibco 11360-039), 100 U/m1 hIL-2 (Glaxo-IMB) and 1 μg/ml ovalbumin N4 peptide (SIINFEKL). To evaluate the effects of IDH2 inhibition on T-cell differentiation, 5 μM of a small molecule IDH2 inhibitor (AG221 or AGI6780) or a DMSO solvent control was added during this 3-day culture period. At day 3, a fraction of the splenocytes was collected and the remaining cells were cultured for 4 additional days with 100 U/ml hIL-2 and 10 ng/ml hIL-7 (Peprotech 200-07) supplementation after washing out the inhibitors and the ovalbumine N4 peptide (FIG. 1). At day 3 and day 7, the activation and differentiation state of CD8+ T-cells was determined by gene expression analysis, flow cytometry and extracellular metabolic flux analyses (see Example 3).
Real-time analysis of CD8^+ T cell oxygen consumption rate (OCR) was measured with an XF-96 Extracellular Flux Analyzer (Seahorse Bioscience) at day 7 of in vitro culture (FIG. 7). Measurements were performed while successively adding different drugs to the culture without any washing steps in between. Specifically, the measurements were performed under basal conditions, after addition of 1.25 μM oligomycin, a complex V inhibitor that blocks mitochondrial ATP synthase, after addition of 1 μM protonophore FCCP (fluoro-carbonyl cyanide phenylhydrazone) to uncouple ATP synthesis from oxygen consumption by the electron transport chain, after addition of 50 μM etomoxir to inhibit CPT1alpha, and thus fatty acid oxidation, and after addition of 100 nM rotenone and 1 μM antimycin A to inhibit the electron transport chain.
The basal OCR is the OCR measured in the absence of drugs. Addition of oligomycin allows to calculate the ATP-linked respiration by subtracting the oligomycin OCR from basal OCR. FCCP enables the electron transport chain (ETC) to reach its maximal rate, allowing to determine the cellular maximal respiratory capacity. Finally, rotenone and antimycin A inhibit the ETC which indicates the non-mitochondrial respiration. The spare respiratory capacity (SRC) is defined as the difference between basal OCR and maximal OCR obtained after FCCP addition.
In addition, the extracellular acidification rate (ECAR), which is an indicator for […], was measured using the same device under basal conditions. This allowed further calculating the OCR/ECAR ratio as indicator of basal mitochondrial activity.

Question: With `CC(C)(O)CNc1nc(Nc2ccnc(C(F)(F)F)c2)nc(-c2cccc(C(F)(F)F)n2)n1` [AG221, 2-methyl-1-[[4-[6-(trifluoromethyl)pyridin-2-yl]-6-[[2-(trifluoromethyl)pyridin-4-yl]amino]-1,3,5-triazin-2-yl]amino]propan-2-ol] as the compound, how does the “TNF expression upon restimulation” value (human CD8+ T-cells) read?
Answer: unaffected

Question: What about the “expression of effector cytokine IFNγ upon restimulation” value (human CD8+ T-cells) of the same compound?
Answer: significant upregulation

Question: What about the “production of IL-2 upon restimulation” value (human CD8+ T-cells) of the same compound?
Answer: unaltered

Question: And the “CD62L-positive population of CD4 T cells” value (OT2 CD4 T cells)?
Answer: strong increase

Question: What about the OCR/ECAR ratio (OT1 CD8+ T cells) of the same compound?
Answer: unchanged

Question: And the “basal oxygen consumption rate (OCR)” value (OT1 CD8+ T cells)?
Answer: significantly increased

Question: What about the “extracellular acidification rates (ECAR)” value (OT1 CD8+ T cells) of the same compound?
Answer: unchanged

Question: And the maximal respiratory capacity (OT1 CD8+ T cells)?
Answer: significantly increased

Question: What about the “spare respiratory capacity (SRC)” value (OT1 CD8+ T cells) of the same compound?
Answer: significantly increased
